# ± gives the expanded uncertainty stated by the source.
# Details: 293.15 K; 101.33 kPa; Liquid; Other PVT measurement
row,Compound,mass density
1,CCCCCCCCC [nonane],718 ± 10 kg/m3
2,CCCCCCCCCCCCCC [tetradecane],767 ± 10 kg/m3
3,c1ccc(C2CCCCC2)cc1 [cyclohexylbenzene],940 ± 10 kg/m3
4,CCCCCCCCCCCCCCCC [hexadecane],773 ± 10 kg/m3
5,c1ccccc1 [benzene],877 ± 10 kg/m3
6,CCCCCCCCCCCC [dodecane],753 ± 10 kg/m3
7,CCCC1CCCCC1 [1-cyclohexylpropane],790 ± 10 kg/m3
8,"C1CCC(C2CCCCC2)CC1 [1,1'-bicyclohexyl]",890 ± 10 kg/m3
9,CCCCCC [hexane],659 ± 10 kg/m3
10,CCCCCCC1CCCCC1 [hexylcyclohexane],810 ± 10 kg/m3
11,C1CCCCC1 [cyclohexane],778 ± 10 kg/m3

# From the NIST ThermoML archive (doi:10.1016/j.fluid.2017.02.010)
